Laboratory results taken from ChEMBL document CHEMBL4808176, “Optimization of Truncated Glucagon Peptides to Achieve Selective, High Potency, Full Antagonists” (J Med Chem, 2021).
Calls of active or inactive are those of the source. The rule behind the calls is not given here. Peptide text beside a SMILES is read from it. * marks the point of attachment. Carboxymethyl = O=C(O)C*; CH2CH2COOH = O=C(O)CC*

Key:
Glucagon receptor [1] = target: T1, Glucagon receptor (Homo sapiens, UniProt P47871); assay: Antagonist activity at human GCGR expressed in HEK293 cells assessed as inhibition of glucogon-induced cAMP production; assay type: functional, cell-based
Glucagon receptor [2] = target: T1, Glucagon receptor; assay: Displacement of 125I-glucagon from human GCGR expressed in HEK293 cells membranes incubated for 6 hrs by liquid scintillation counting method; assay type: cell membranes, Membrane
Glucagon receptor [3] = target: T1, Glucagon receptor; assay: Partial antagonist activity at human GCGR expressed in HEK293 cells assessed as inhibition of glucogon-induced cAMP production; assay type: functional, cell-based; conditions: filed as antagonist

T1 sequence (P47871 whole entry): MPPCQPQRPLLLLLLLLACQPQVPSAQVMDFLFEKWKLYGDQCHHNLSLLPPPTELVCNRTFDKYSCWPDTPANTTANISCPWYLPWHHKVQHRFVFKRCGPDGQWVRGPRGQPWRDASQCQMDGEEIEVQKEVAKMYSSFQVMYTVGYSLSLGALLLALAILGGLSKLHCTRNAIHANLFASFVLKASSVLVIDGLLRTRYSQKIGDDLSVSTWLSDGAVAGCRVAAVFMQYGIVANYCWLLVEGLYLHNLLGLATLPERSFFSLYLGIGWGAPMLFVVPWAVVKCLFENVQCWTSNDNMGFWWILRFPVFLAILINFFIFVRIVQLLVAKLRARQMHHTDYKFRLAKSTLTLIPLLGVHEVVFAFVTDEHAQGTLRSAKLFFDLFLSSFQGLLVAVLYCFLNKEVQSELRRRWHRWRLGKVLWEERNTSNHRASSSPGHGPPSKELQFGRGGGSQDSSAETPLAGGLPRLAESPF

Molecule | IC50 (Glucagon receptor [1]) [µM] | IC50 (Glucagon receptor [2]) [µM] | Activity (Glucagon receptor [3])
CSCC[C@H](NC(=O)[C@H](CC(C)C)NC(=O)[C@H](Cc1c[nH]c2ccccc12)NC(=O)[C@H](CCC(N)=O)NC(=O)[C@@H](NC(=O)[C@H](Cc1ccccc1)NC(=O)[C@H](CC(=O)O)NC(=O)[C@H](CCC(N)=O)NC(=O)[C@H](C)NC(=O)[C@H](CCCNC(=N)N)NC(=O)[C@H](CCCNC(=N)N)NC(=O)[C@H](CO)NC(=O)[C@H](CC(=O)O)NC(=O)[C@H](CC(C)C)NC(=O)[C@H](Cc1ccc(O)cc1)NC(=O)[C@H](CCCCN)NC(=O)[C@H](CO)NC(=O)[C@H](Cc1ccc(O)cc1)NC(=O)[C@H](CCC(=O)O)NC(=O)[C@H](CO)NC(=O)[C@@H](NC(=O)[C@@H](N)Cc1ccc2ccccc2c1)[C@@H](C)O)C(C)C)C(=O)N[C@@H](CC(N)=O)C(=O)N[C@H](C(N)=O)[C@@H](C)O (HELM PEPTIDE1{[N[C@@H](Cc1ccc2ccccc2c1)C(=O)[*:2]].T.S.E.Y.S.K.Y.L.D.S.R.R.A.Q.D.F.V.Q.W.L.M.N.T.[am]}$$$$V2.0) | 0.0441 | 0.0952 | –
CSCC[C@H](NC(=O)[C@H](CC(C)C)NC(=O)[C@H](Cc1c[nH]c2ccccc12)NC(=O)[C@H](CCC(N)=O)NC(=O)[C@@H](NC(=O)[C@H](Cc1ccccc1)NC(=O)[C@H](CC(=O)O)NC(=O)[C@H](CCC(N)=O)NC(=O)[C@H](C)NC(=O)[C@H](CCCNC(=N)N)NC(=O)[C@H](CCCNC(=N)N)NC(=O)[C@H](CO)NC(=O)[C@H](CC(=O)O)NC(=O)[C@H](CC(C)C)NC(=O)[C@H](Cc1ccc(O)cc1)NC(=O)[C@H](CCCCN)NC(=O)[C@H](CO)NC(=O)[C@H](Cc1ccc(O)cc1)NC(=O)[C@H](CSCCC(=O)O)NC(=O)[C@H](CO)NC(=O)[C@@H](NC(=O)[C@@H](N)Cc1ccccc1)[C@@H](C)O)C(C)C)C(=O)N[C@@H](CC(N)=O)C(=O)N[C@H](C(N)=O)[C@@H](C)O (H-FTSC(CH2CH2COOH)YSKYLDSRRAQDFVQWLMNT-NH2) | 0.0818 | – | –
CSCC[C@H](NC(=O)[C@H](CC(C)C)NC(=O)[C@H](Cc1c[nH]c2ccccc12)NC(=O)[C@H](CCC(N)=O)NC(=O)[C@@H](NC(=O)[C@H](Cc1ccccc1)NC(=O)[C@H](CC(=O)O)NC(=O)[C@H](CCC(N)=O)NC(=O)[C@H](C)NC(=O)[C@H](CCCNC(=N)N)NC(=O)[C@H](CCCNC(=N)N)NC(=O)[C@H](CO)NC(=O)[C@H](CC(=O)O)NC(=O)[C@H](CC(C)C)NC(=O)[C@H](Cc1ccc(O)cc1)NC(=O)[C@H](CCCCN)NC(=O)[C@H](CO)NC(=O)[C@H](Cc1ccc(O)cc1)NC(=O)CN(CCC(=O)O)C(=O)[C@H](CO)NC(=O)[C@@H](NC(=O)[C@H](Cc1ccccc1)NC(=O)[C@@H](NC(=O)CNC(=O)[C@H](CCC(N)=O)NC(=O)[C@@H](N)CO)[C@@H](C)O)[C@@H](C)O)C(C)C)C(=O)N[C@@H](CC(N)=O)C(=O)N[C@H](C(N)=O)[C@@H](C)O | – | – | Active
CSCC[C@H](NC(=O)[C@H](CC(C)C)NC(=O)[C@H](Cc1c[nH]c2ccccc12)NC(=O)[C@H](CCC(N)=O)NC(=O)[C@@H](NC(=O)[C@H](Cc1ccccc1)NC(=O)[C@H](CC(=O)O)NC(=O)[C@H](CCC(N)=O)NC(=O)[C@H](C)NC(=O)[C@H](CCCNC(=N)N)NC(=O)[C@H](CCCNC(=N)N)NC(=O)[C@H](CO)NC(=O)[C@H](CC(=O)O)NC(=O)[C@H](CC(C)C)NC(=O)[C@H](Cc1ccc(O)cc1)NC(=O)[C@H](CCCCN)NC(=O)[C@H](CO)NC(=O)[C@H](Cc1ccc(O)cc1)NC(=O)[C@H](CSCC(=O)O)NC(=O)[C@H](CO)NC(=O)[C@@H](NC(=O)[C@@H](N)Cc1ccccc1)[C@@H](C)O)C(C)C)C(=O)N[C@@H](CC(N)=O)C(=O)N[C@H](C(N)=O)[C@@H](C)O (H-FTSC(Carboxymethyl)YSKYLDSRRAQDFVQWLMNT-NH2) | 0.0714 | – | –
CSCC[C@H](NC(=O)[C@H](CC(C)C)NC(=O)[C@H](Cc1c[nH]c2ccccc12)NC(=O)[C@H](CCC(N)=O)NC(=O)[C@@H](NC(=O)[C@H](Cc1ccccc1)NC(=O)[C@H](CC(=O)O)NC(=O)[C@H](CCC(N)=O)NC(=O)[C@H](C)NC(=O)[C@H](CCCNC(=N)N)NC(=O)[C@H](CCCNC(=N)N)NC(=O)[C@H](CO)NC(=O)[C@H](CC(=O)O)NC(=O)[C@H](CC(C)C)NC(=O)[C@H](Cc1ccc(O)cc1)NC(=O)[C@H](CCCCN)NC(=O)[C@H](CO)NC(=O)[C@H](Cc1ccc(O)cc1)NC(=O)[C@H](CSCC(=O)O)NC(=O)[C@H](CO)NC(=O)[C@@H](NC(=O)[C@H](Cc1ccccc1)NC(=O)[C@@H](NC(=O)CNC(=O)[C@H](CCC(N)=O)NC(=O)[C@@H](N)CO)[C@@H](C)O)[C@@H](C)O)C(C)C)C(=O)N[C@@H](CC(N)=O)C(=O)N[C@H](C(N)=O)[C@@H](C)O | – | – | Active
CSCC[C@H](NC(=O)[C@H](CC(C)C)NC(=O)[C@H](Cc1c[nH]c2ccccc12)NC(=O)[C@H](CCC(N)=O)NC(=O)[C@@H](NC(=O)[C@H](Cc1ccccc1)NC(=O)[C@H](CC(=O)O)NC(=O)[C@H](CCC(N)=O)NC(=O)[C@H](C)NC(=O)[C@H](CCCNC(=N)N)NC(=O)[C@H](CCCNC(=N)N)NC(=O)[C@H](CO)NC(=O)[C@H](CC(=O)O)NC(=O)[C@H](CC(C)C)NC(=O)[C@H](Cc1ccc(O)cc1)NC(=O)[C@H](CCCCN)NC(=O)[C@H](CO)NC(=O)[C@H](Cc1ccc(O)cc1)NC(=O)CN(CCCC(=O)O)C(=O)[C@H](CO)NC(=O)[C@@H](NC(=O)[C@H](Cc1ccccc1)NC(=O)[C@@H](NC(=O)CNC(=O)[C@H](CCC(N)=O)NC(=O)[C@@H](N)CO)[C@@H](C)O)[C@@H](C)O)C(C)C)C(=O)N[C@@H](CC(N)=O)C(=O)N[C@H](C(N)=O)[C@@H](C)O | – | – | Active
CSCC[C@H](NC(=O)[C@H](CC(C)C)NC(=O)[C@H](Cc1c[nH]c2ccccc12)NC(=O)[C@H](CCC(N)=O)NC(=O)[C@@H](NC(=O)[C@H](Cc1ccccc1)NC(=O)[C@H](CC(=O)O)NC(=O)[C@H](CCC(N)=O)NC(=O)[C@H](C)NC(=O)[C@H](CCCNC(=N)N)NC(=O)[C@H](CCCNC(=N)N)NC(=O)[C@H](CO)NC(=O)[C@H](CC(=O)O)NC(=O)[C@H](CC(C)C)NC(=O)[C@H](Cc1ccc(O)cc1)NC(=O)[C@H](CCCCN)NC(=O)[C@H](CO)NC(=O)[C@H](Cc1ccc(O)cc1)NC(=O)[C@H](CCC(=O)O)NC(=O)[C@H](CO)NC(=O)[C@@H](NC(=O)C(C)Cc1ccccc1)[C@@H](C)O)C(C)C)C(=O)N[C@@H](CC(N)=O)C(=O)N[C@H](C(N)=O)[C@@H](C)O (some centres not stated) (HELM PEPTIDE1{[CC(Cc1ccccc1)C(=O)[*:2]].T.S.E.Y.S.K.Y.L.D.S.R.R.A.Q.D.F.V.Q.W.L.M.N.T.[am]}$$$$V2.0) | 0.0477 | 0.114 | –
CSCC[C@H](NC(=O)[C@H](CC(C)C)NC(=O)[C@H](Cc1c[nH]c2ccccc12)NC(=O)[C@H](CCC(N)=O)NC(=O)[C@@H](NC(=O)[C@H](Cc1ccccc1)NC(=O)[C@H](CC(=O)O)NC(=O)[C@H](CCC(N)=O)NC(=O)[C@H](C)NC(=O)[C@H](CCCNC(=N)N)NC(=O)[C@H](CCCNC(=N)N)NC(=O)[C@H](CO)NC(=O)[C@H](CC(=O)O)NC(=O)[C@H](CC(C)C)NC(=O)[C@H](Cc1ccc(O)cc1)NC(=O)[C@H](CCCCN)NC(=O)[C@H](CO)NC(=O)[C@H](Cc1ccc(O)cc1)NC(=O)[C@H](CCCC(=O)O)NC(=O)[C@H](CO)NC(=O)[C@@H](NC(=O)[C@H](Cc1ccccc1)NC(=O)[C@@H](NC(=O)CNC(=O)[C@H](CCC(N)=O)NC(=O)[C@@H](N)CO)[C@@H](C)O)[C@@H](C)O)C(C)C)C(=O)N[C@@H](CC(N)=O)C(=O)N[C@H](C(N)=O)[C@@H](C)O | – | – | Active
Ac-FTSEYSKYLDSRRAQDFVQWLMNT-NH2 | 0.13 | 0.0371 | –
CSCC[C@H](NC(=O)[C@H](CC(C)C)NC(=O)[C@H](Cc1c[nH]c2ccccc12)NC(=O)[C@H](CCC(N)=O)NC(=O)[C@@H](NC(=O)[C@H](Cc1ccccc1)NC(=O)[C@H](CC(=O)O)NC(=O)[C@H](CCC(N)=O)NC(=O)[C@H](C)NC(=O)[C@H](CCCNC(=N)N)NC(=O)[C@H](CCCNC(=N)N)NC(=O)[C@H](CO)NC(=O)[C@H](CC(=O)O)NC(=O)[C@H](CC(C)C)NC(=O)[C@H](Cc1ccc(O)cc1)NC(=O)[C@H](CCCCN)NC(=O)[C@H](CO)NC(=O)[C@H](Cc1ccc(O)cc1)NC(=O)[C@H](CSCCC(=O)O)NC(=O)[C@H](CO)NC(=O)[C@@H](NC(=O)[C@H](Cc1ccccc1)NC(=O)[C@@H](NC(=O)CNC(=O)[C@H](CCC(N)=O)NC(=O)[C@@H](N)CO)[C@@H](C)O)[C@@H](C)O)C(C)C)C(=O)N[C@@H](CC(N)=O)C(=O)N[C@H](C(N)=O)[C@@H](C)O | – | – | Active
CSCC[C@H](NC(=O)[C@H](CC(C)C)NC(=O)[C@H](Cc1c[nH]c2ccccc12)NC(=O)[C@H](CCC(N)=O)NC(=O)[C@@H](NC(=O)[C@H](Cc1ccccc1)NC(=O)[C@H](CC(=O)O)NC(=O)[C@H](CCC(N)=O)NC(=O)[C@H](C)NC(=O)[C@H](CCCNC(=N)N)NC(=O)[C@H](CCCNC(=N)N)NC(=O)[C@H](CO)NC(=O)[C@H](CC(=O)O)NC(=O)[C@H](CC(C)C)NC(=O)[C@H](Cc1ccc(O)cc1)NC(=O)[C@H](CCCCN)NC(=O)[C@H](CO)NC(=O)[C@H](Cc1ccc(O)cc1)NC(=O)C[C@H](CCC(=O)O)NC(=O)[C@H](CO)NC(=O)[C@@H](NC(=O)[C@H](Cc1ccccc1)NC(=O)[C@@H](NC(=O)CNC(=O)[C@H](CCC(N)=O)NC(=O)[C@@H](N)CO)[C@@H](C)O)[C@@H](C)O)C(C)C)C(=O)N[C@@H](CC(N)=O)C(=O)N[C@H](C(N)=O)[C@@H](C)O | – | – | Active
CSCC[C@H](NC(=O)[C@H](CC(C)C)NC(=O)[C@H](Cc1c[nH]c2ccccc12)NC(=O)[C@H](CCC(N)=O)NC(=O)[C@@H](NC(=O)[C@H](Cc1ccccc1)NC(=O)[C@H](CC(=O)O)NC(=O)[C@H](CCC(N)=O)NC(=O)[C@H](C)NC(=O)[C@H](CCCNC(=N)N)NC(=O)[C@H](CCCNC(=N)N)NC(=O)[C@H](CO)NC(=O)[C@H](CC(=O)O)NC(=O)[C@H](CC(C)C)NC(=O)[C@H](Cc1ccc(O)cc1)NC(=O)[C@H](CCCCN)NC(=O)[C@H](CO)NC(=O)[C@H](Cc1ccc(O)cc1)NC(=O)[C@H](CCC(=O)O)NC(=O)[C@H](CO)NC(=O)[C@@H](NC(=O)[C@@H](N)Cc1ccc(F)c(F)c1)[C@@H](C)O)C(C)C)C(=O)N[C@@H](CC(N)=O)C(=O)N[C@H](C(N)=O)[C@@H](C)O (HELM PEPTIDE1{[N[C@@H](Cc1ccc(F)c(F)c1)C(=O)[*:2]].T.S.E.Y.S.K.Y.L.D.S.R.R.A.Q.D.F.V.Q.W.L.M.N.T.[am]}$$$$V2.0) | 0.192 | 0.0367 | –
H-GTFTSEYSKYLDSRRAQDFVQWLMNT-NH2 | 0.275 | – | –
